Data from patent US9993462B2, “Hydantoin derivative-containing pharmaceutical composition” (Chugai Seiyaku Kabushiki Kaisha, priority 2014, dated 2018).

Assays:
rat hepatocyte = test: Metabolic stability using rat hepatocyte; assay type: in vitro ADME
Description: Liver cells were prepared from the liver of rats (SD, female) by a collagenase perfusion method. A compound of the Reference Examples or a Comparative Example was added, and this was incubated at 37° C. for a specified amount of time, followed by addition of a reaction-stopping solution. The concentration of the parent compound at each reaction time was measured using LC/MS/MS, and inherent clearance (μL/10^6 cells/min) was calculated from the slope of the reaction time versus residual rate.
• Cell concentration: 1×10^6 cells/mL • Compound concentration: 1 μM • Medium: Williams' medium E • Reaction time: 0, 15, 30, 60, 120, and 240 minutes • Reaction-stopping solution: acetonitrile/2-propanol (4/6, v/v)

rat PTH1R = target: T1, rat PTH1R (Rattus norvegicus, UniProt P25961); test: In vitro cAMP signaling activity via the rat PTH1R (LLC-PK46_RATO_PTH1R cells); assay type: cell-based; conditions: LLC-PK46_RATO_PTH1R cells overexpressing rat PTH1R
T1 construct: expressed in transfected cells
T1 sequence (P25961 27-591): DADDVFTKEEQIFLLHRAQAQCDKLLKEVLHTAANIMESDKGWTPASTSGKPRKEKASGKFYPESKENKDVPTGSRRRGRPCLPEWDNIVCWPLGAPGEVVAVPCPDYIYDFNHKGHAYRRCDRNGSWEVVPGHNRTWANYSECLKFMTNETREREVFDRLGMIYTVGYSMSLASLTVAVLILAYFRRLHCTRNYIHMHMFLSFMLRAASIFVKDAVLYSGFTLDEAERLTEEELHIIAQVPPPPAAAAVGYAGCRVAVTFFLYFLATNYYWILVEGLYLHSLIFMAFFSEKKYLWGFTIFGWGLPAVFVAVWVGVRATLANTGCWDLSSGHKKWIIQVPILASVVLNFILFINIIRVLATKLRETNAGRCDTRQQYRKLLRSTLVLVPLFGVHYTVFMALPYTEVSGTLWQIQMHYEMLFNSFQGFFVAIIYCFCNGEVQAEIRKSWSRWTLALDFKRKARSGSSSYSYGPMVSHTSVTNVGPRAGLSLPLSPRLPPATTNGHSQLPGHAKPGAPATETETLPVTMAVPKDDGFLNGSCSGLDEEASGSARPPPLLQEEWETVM
Description: Instead of HKRK-B7 cells, LLC-PK46_RATO_PTH1R cells overexpressing rat PTH1R, which were established at Chugai Pharmaceutical, were used to take measurements in a similar manner to Reference Test Example 1.

normal rats = test: Bone mineral density after four weeks of repeated intravenous administration to normal rats; assay type: in vivo, rat; conditions: intravenous once a day for four weeks
Description: Female RccHan: WIST rats obtained from Japan Laboratory Animals Inc. were acclimated for one week or longer under standard laboratory conditions of 20° C. to 26° C. and 30% to 70% humidity, and then used in experiments. The rats had free access to tap water and a standard rodent diet (CR-LPF) (Oriental Yeast Co., Ltd.).
Intravenous catheter was placed into eight-week old rats. The catheter was inserted from the femoral vein in the inguinal region, and the tip was extended into the caudal vena cava for placement at that site. The body weight was determined in the first week post-surgery, and the rats were divided into groups of ten animals per group so that the average body weight of each group would be even. Two days after group division, all rats were intravenously administered once a day repeatedly for four weeks. Administration was carried out by connecting an infusion pump (MEDFUSION SYRINGE INFUSION PUMP Model 2001) to the indwelling catheter.
The solvent (vehicle) was administered intravenously to the Vehicle-Control group. To the Compound 7-20 mg/kg, −30 mg/kg, and −50 mg/kg groups, Compound 7 dissolved in the vehicle was administered intravenously at a dose of 20 mg/kg, 30 mg/kg, and 50 mg/kg, respectively. For all groups, the administration volume was 5 mL/kg and the administration speed was 5 mL/kg/minute. The composition of the vehicle used was 5% dimethyl sulfoxide (Wako Pure Chemical Industries, Ltd.), 25% propylene glycol (Kanto Chemical Co., Inc.)/20% ethanol (Junsei Chemical Co., Ltd.)/15% hydroxypropyl-β-cyclodextrin (Nihon Shokuhin Kako Co., Ltd)/300 mM glycine (Wako Pure Chemical Industries, Ltd.)/192 mM sodium hydroxide (Wako Pure Chemical Industries, Ltd.)/physiological saline solution (Otsuka Pharmaceutical Factory, Inc.). Rats were euthanized under anesthesia the day after final administration by collecting blood from the abdominal aorta, and then autopsy was performed to collect the lumbar spine, lower leg bone, and mandible. The lumbar spine, lower leg bone, and mandible were stored in 70% ethanol. The bone mineral densities of the lumbar spine (second to fourth lumbar vertebrae), lower leg bone, and mandible were determined using a dual X-ray bone mineral scanner (DCS-600EX, Aloka).
The data are shown as mean value+standard error (SE). SAS preclinical package ver. 5.00 (SAS Institute Japan) was used to perform the following statistical analyses. The significance level was set to 5% on both sides. With regard to the lumbar spine, lower leg bone, and mandible bone mineral density, parametric Dunnett multiple comparison (*P<0.05) was performed for the three dosage groups of Compound 7 with the Vehicle-Control group as control.

rat hepatocyte metabolic stability compared to Comparative Examples 1, 2, 3, 5, and 6 (in words) (rat hepatocyte): increased | EC20 (rat PTH1R): 500 nM
SMILES: Cc1cc(N2C(=O)NC(=O)C2(C)C)cc(C)c1CCS(=O)(=O)N1CCC2(CC1)N=C(c1ccc(OC(F)(F)F)cc1)NC2=O [Compound 7, 1-(3,5-dimethyl-4-(2-((4-oxo-2-(4-(trifluoromethoxy)phenyl)-1,3,8-triazaspiro[4.5]deca-1-en-8-yl)sulfonyl)ethyl)phenyl)-5,5-dimethylimidazolidine-2,4-dione]
percentage of increase in the lumbar spine bone mineral density with respect to the Vehicle-Control group (normal rats; 20 mg/kg): 16% | percentage of increase of bone mineral density in the lower leg bone with respect to the Vehicle-Control group (normal rats; 20 mg/kg): 7% | percentage of increase in the lumbar spine bone mineral density with respect to the Vehicle-Control group (normal rats; 30 mg/kg): 21% | percentage of increase of bone mineral density in the lower leg bone with respect to the Vehicle-Control group (normal rats; 30 mg/kg): 16% | percentage of increase of mandible bone mineral density relative to the Vehicle-Control group (normal rats; 30 mg/kg): 7% | percentage of increase in the lumbar spine bone mineral density with respect to the Vehicle-Control group (normal rats; 50 mg/kg): 25% | percentage of increase of bone mineral density in the lower leg bone with respect to the Vehicle-Control group (normal rats; 50 mg/kg): 19%
